The text below walks through data of ChEMBL document CHEMBL3044830, “Synthesis, characterization, antibacterial, antifungal, and immunomodulating activities of gatifloxacin derivatives” (Med Chem Res, 2010).

Some results are limits rather than exact numbers.

Assay [1] concerns Proteus mirabilis. The experiment in a line: Antibacterial activity against Proteus mirabilis assessed as concentration required to obtain a zone of inhibition of 10 mm after 18 to 24 hr by disc diffusion method. It is filed as functional.
A further assay has as its system Trichophyton rubrum. The assay can be described thus: Antifungal activity against Trichophyton rubrum assessed as concentration required to obtain a zone of inhibition of 20 mm after 7 days by disk diffusion method. It is filed as functional.
Assay [2] concerns Blood. The assay can be described thus: Antioxidant activity in Homo sapiens (human) whole blood assessed as inhibition of ROS production at 12.5 ug/ml after 30 min by luminol-enhanced chemiluminescence assay. It is filed as functional. Particulars: 0.5 h.
The next assay relates to Shigella sp. The assay can be described thus: Antibacterial activity against Shigella typhi assessed as concentration required to obtain a zone of inhibition of 10 mm after 18 to 24 hr by disc diffusion method. It is filed as functional.
For assay [3], the system named is Proteus mirabilis. The assay can be described thus: Antibacterial activity against Proteus mirabilis assessed as concentration required to obtain a zone of inhibition of 5 mm after 18 to 24 hr by disc diffusion method. It is filed as functional.
The test system of another assay is T-cell. The experiment in a line: Anti-inflammatory activity in Homo sapiens (human) T lymphocytes assessed as inhibition of PHA-induced [3H] thymidine uptake incubated for 72 hr prior to [3H]thymidine addition measured after 18 hr by liquid scintillation method. It is filed as functional, cell-based.
Assay [4] relates to Bacillus subtilis. The experiment in a line: Antibacterial activity against Bacillus subtilis assessed as concentration required to obtain a zone of inhibition of 10 mm after 18 to 24 hr by disk diffusion method. Format: functional.
Assay [5] deals with Bacillus subtilis. The assay can be described thus: Antibacterial activity against Bacillus subtilis assessed as zone of inhibition at 5 to 40 ug/ml after 18 to 24 hr by disk diffusion method relative to gatifloxacin. Format: functional.
Another assay relates to Escherichia coli. The assay can be described thus: Antibacterial activity against Escherichia coli assessed as concentration required to obtain a zone of inhibition of 5 mm after 18 to 24 hr by disk diffusion method. Format: functional.
The subject of assay [6] is Bacillus subtilis. The experiment in a line: Antibacterial activity against Bacillus subtilis assessed as concentration required to obtain a zone of inhibition of 5 mm after 18 to 24 hr by disk diffusion method. Format: functional.
The subject of assay [7] is Candida albicans. The experiment in a line: Antifungal activity against Candida albicans assessed as concentration required to obtain a zone of inhibition of 40 mm after 7 days by disk diffusion method. Format: functional.
A further assay relates to Pseudomonas aeruginosa. The assay can be described thus: Antibacterial activity against Pseudomonas aeruginosa assessed as concentration required to obtain a zone of inhibition of 5 mm after 18 to 24 hr by disk diffusion method. Format: functional.
For a further assay, the system named is Citrobacter. The assay can be described thus: Antibacterial activity against Citrobacter assessed as concentration required to obtain a zone of inhibition of 20 mm after 18 to 24 hr by disk diffusion method. Format: functional.
In assay [8] the test system is Candida albicans. The experiment in a line: Antifungal activity against Candida albicans assessed as zone of inhibition at 5 to 40 ug/ml after 7 days by disk diffusion method relative to gatifloxacin. It is filed as functional.
Assay [9] in a line: Antibacterial activity against Hofmanni bacterium assessed as zone of inhibition after 18 to 24 hr by disc diffusion method relative to gatifloxacin.
The subject of assay [10] is Blood. The experiment in a line: Antioxidant activity in Homo sapiens (human) whole blood assessed as inhibition of ROS production at 50 ug/ml after 30 min by luminol-enhanced chemiluminescence assay. It is filed as functional. The following applies: 0.5 h.
In a further assay the test system is Staphylococcus aureus. The assay can be described thus: Antibacterial activity against methicillin-resistant Staphylococcus aureus assessed as zone of inhibition at 5 to 40 ug/ml after 18 to 24 hr by disk diffusion method relative to gatifloxacin. It is filed as functional.
The next assay concerns Klebsiella pneumoniae. The assay can be described thus: Antibacterial activity against Klebsiella pneumoniae assessed as concentration required to obtain a zone of inhibition of 10 mm after 18 to 24 hr by disk diffusion method. Format: functional.

As for `COc1c(N2CCN(C(=O)c3ccccc3)C(C)C2)c(F)cc2c(=O)c(C(=O)O)cn(C3CC3)c12.O` (configuration not stated), the Activity stood at 11 µg/mL in the assay with Proteus mirabilis [1]; 21 µg/mL with Trichophyton rubrum; 9 µg/mL in the assay with Shigella sp.; 9 µg/mL with Proteus mirabilis [3]; 15 µg/mL with Bacillus subtilis [4]; 8 µg/mL in the assay with Escherichia coli. The Activity amounted to 12 µg/mL in the assay on Bacillus subtilis [6]; 14 µg/mL in the assay with Candida albicans [7]; 10 µg/mL in the assay on Pseudomonas aeruginosa; 12 µg/mL with Citrobacter; 14 µg/mL in the assay with Klebsiella pneumoniae. Also, the inhibition at 12.5 µg/mL with Blood [2] is -5.1%. For the same molecule, in the assay with T-cell, the half-inhibitory concentration (IC50) is more than 50 µg/mL. Further, the “inhibition zone (IZ)” value was 104% with Bacillus subtilis [5], 141% in the assay on Candida albicans [8], 86% in [9] and 87.4% in the assay with Staphylococcus aureus. Besides, in the assay on Blood [10], the inhibition at 50 µg/mL stood at 11.1%.
With `CCCCCCCC(=O)N1CCN(c2c(F)cc3c(=O)c(C(=O)O)cn(C4CC4)c3c2OC)CC1C.O` (configuration not stated), the Activity was found to be 12 µg/mL in the assay with Proteus mirabilis [1]; 16 µg/mL in the assay on Trichophyton rubrum; 11 µg/mL in the assay on Proteus mirabilis [3]; 11 µg/mL with Bacillus subtilis [4]; 8 µg/mL in the assay on Escherichia coli; 10 µg/mL in the assay with Bacillus subtilis [6]. Besides, the Activity worked out at 21 µg/mL in the assay with Candida albicans [7], 8 µg/mL in the assay on Pseudomonas aeruginosa, 15 µg/mL with Citrobacter and 14 µg/mL with Klebsiella pneumoniae. For the same molecule, the inhibition at 12.5 µg/mL in the assay on Blood [2] stood at 74.1%. In addition, the IC50 with T-cell was more than 50 µg/mL. Moreover, the “inhibition zone (IZ)” value is 80.2% in the assay with Bacillus subtilis [5], 218% in the assay on Candida albicans [8], 88% in assay [9] and 76.7% in the assay on Staphylococcus aureus. For the same molecule, the inhibition at 50 µg/mL in the assay on Blood [10] is 89.2%.
On to `COc1c(N2CCN(C(C)=O)C(C)C2)c(F)cc2c(=O)c(C(=O)O)cn(C3CC3)c12.O` (configuration not stated), for which the Activity in the assay on Proteus mirabilis [1] worked out at 10 µg/mL; with Trichophyton rubrum, 28 µg/mL; in the assay with Proteus mirabilis [3], 9 µg/mL; in the assay with Bacillus subtilis [4], 15 µg/mL; in the assay with Escherichia coli, 10 µg/mL; with Bacillus subtilis [6] it was 11 µg/mL. In addition, the Activity in the assay with Candida albicans [7] worked out at 19 µg/mL; with Pseudomonas aeruginosa it was 11 µg/mL; with Citrobacter it was 24 µg/mL; in the assay with Klebsiella pneumoniae, 23 µg/mL. In the assay with Blood [2], the inhibition at 12.5 µg/mL was -14.3%. Also, the IC50 in the assay with T-cell was more than 50 µg/mL. In addition, the “inhibition zone (IZ)” value was found to be 100% in the assay with Bacillus subtilis [5], 206% with Candida albicans [8], 99% in assay [9] and 124% in the assay on Staphylococcus aureus. Also, in the assay on Blood [10], the inhibition at 50 µg/mL is -17.4%.
